Measurements from paper PMC6522510 (Nature Communications, 2019).
Like-named read-outs stand apart in the source and are kept apart here.

Assays:
Experiment in all cases: Secondary dose-response HTS, Cell Titer Glo; call rule not given here
Assay type in all cases: cell-based, human
MV4-11 = details: secondary high-throughput screen, MV4-11
CMK = details: secondary high-throughput screen; CMK
MOLM-13 = details: secondary high-throughput screen, MOLM-13; for EC50: read-out: average effective concentration, MOLM-13
CHRF288-11 = details: secondary high-throughput screen; CHRF288-11
ML2 = details: Homo sapiens; secondary high-throughput screen; ML-2; read-out: average effective concentration, ML-2
U937 = details: Homo sapiens, U-937; secondary high-throughput screen; U937; read-out: average effective concentration, U937

Compound	average effective concentration, MV4-11 (MV4-11)	average effective concentration, CMK (CMK)	average effective concentration, MOLM-13 (MOLM-13)	further results
CN(C)CCCNc1c2ccccc2nc2c1[nH]c1ccccc12 [SYUIQ-5]	Inactive	Inactive	–	–
O=C(c1ccc(Nc2nccc(-c3cc4ccccc4s3)n2)cc1)N1CCC(N2CCCC2)CC1 [IKK 16]	Inactive	–	Inactive	–
C[C@@H]1NC(=O)[C@H]2CCCN2C(=O)[C@H](CCCCCC(=O)[C@@H]2CO2)NC(=O)[C@@H](C)NC1=O [HC TOXIN]	Inactive	Inactive	–	–
C=CC(=O)Nc1cccc(Nc2nc(Nc3ccc(OCCOC)cc3)ncc2F)c1 [CC-292 (AVL-292)]	Inactive	–	Inactive	average effective concentration, CHRF288-11 (CHRF288-11): Inactive
O=C(Nc1ncc([N+](=O)[O-])s1)c1ccc([N+](=O)[O-])c(Cl)c1 [SM-7368]	Inactive	Inactive	Inactive	average effective concentration, CHRF288-11 (CHRF288-11): Inactive
O=C(Nc1ccccc1-c1cn2c(CN3CCNCC3)csc2n1)c1cnc2ccccc2n1 [SRT1720]	Inactive	Inactive	–	–
O=C(CCCCCCNC(=O)c1cnc(N(c2ccccc2)c2ccccc2)nc1)NO [ROCILINOSTAT]	Inactive	–	Inactive	–
Nc1nc(NC2CC2)cc(-c2cccc(Cl)c2Cl)n1 [TH588]	Inactive	–	Inactive	average effective concentration, CHRF288-11 (CHRF288-11): Inactive
CC(C)C(=O)SCCCCCCC(=O)Nc1nc(-c2ccccc2)cs1 [NCH 51]	Inactive	Inactive	–	–
Br.Cc1cc2nc(NCCCO)n(CC(=O)c3cc(C(C)(C)C)c(O)c(C(C)(C)C)c3)c2cc1C [CID-2858522]	Inactive	Inactive	Inactive	average effective concentration, CHRF288-11 (CHRF288-11): Inactive
CNC(=O)c1cc(Oc2ccc(NC(=O)Nc3ccc(Cl)c(C(F)(F)F)c3)cc2)ccn1 [Sorafenib, reference compound]	–	387	–	EC50 (ML2): > 10000 nM; EC50 (U937): > 10000 nM; EC50 (MOLM-13; Homo sapiens): 18 nM
CO[C@@H]1[C@H](N(C)C(=O)c2ccccc2)C[C@H]2O[C@]1(C)n1c3ccccc3c3c4c(c5c6ccccc6n2c5c31)C(=O)NC4 [MIDOSTAURIN]	–	–	–	EC50 (ML2): 17 nM; EC50 (MOLM-13; Homo sapiens): 65 nM
CN(c1ncccc1CNc1nc(Nc2ccc3c(c2)CC(=O)N3)ncc1C(F)(F)F)S(C)(=O)=O [PF-00562271]	Inactive	–	Inactive	average effective concentration, CHRF288-11 (CHRF288-11): Inactive
AZD4547	–	–	–	EC50 (MV4-11; read-out: average effective concentration, MV4-11): 7800 nM; EC50 (MOLM-13): 4100 nM
Cc1ccc(NCCCc2ccccc2)c(N)c1 [JSH-23]	Inactive	–	Inactive	–
Cc1ccc(NC(=O)CCCCCC(=O)Nc2ccccc2N)cc1 [PIMELIC DIPHENYLAMIDE 106]	Inactive	Inactive	–	–
COc1cc(O)c2c(c1)/C=C/C[C@H](O)[C@H](O)C(=O)/C=C\C[C@H](C)OC2=O [(5Z)-7-OXOZEAENOL]	Inactive	–	Inactive	–
